Measurements published in the NIST ThermoML archive (doi:10.1016/j.jct.2013.10.001).
Values joined by “and” are separate entries in the source; they are usually repeats but may differ in a detail not shown here. Equal values may be shown once. ± gives the expanded uncertainty stated by the source.

Conditions: Liquid

CC(C)CCCC(C)CCCC(C)CCCCC(C)CCCC(C)CCCC(C)C (stereo not given) [2,6,10,15,19,23-hexamethyltetracosane]
viscosity
Conditions | Falling or rolling sphere viscometry | quartz resonator viscometer
293.15 K, 10220 kPa | – | 45.8 ± 1.9 mPa·s and 46.2 ± 1.9 mPa·s
293.15 K, 20250 kPa | – | 57.9 ± 2.3 mPa·s and 58.5 ± 2.4 mPa·s
293.15 K, 30090 kPa | – | 70.8 ± 2.9 mPa·s and 71.5 ± 2.9 mPa·s
293.15 K, 40100 kPa | – | 87 ± 3.5 mPa·s and 87.9 ± 3.6 mPa·s
293.15 K, 50070 kPa | – | 108.1 ± 4.4 mPa·s and 109.2 ± 4.4 mPa·s
293.15 K, 60060 kPa | – | 130 ± 5.3 mPa·s and 131.3 ± 5.3 mPa·s
293.15 K, 71000 kPa | – | 160.4 ± 6.5 mPa·s and 162.1 ± 6.6 mPa·s
293.15 K, 80600 kPa | – | 180.6 ± 7.3 mPa·s and 182.4 ± 7.4 mPa·s
303.15 K, 11300 kPa | – | 28.6 ± 1.2 mPa·s and 28.5 ± 1.2 mPa·s
303.15 K, 19900 kPa | – | 34.1 ± 1.4 mPa·s and 34 ± 1.4 mPa·s
303.15 K, 20000 kPa | 34.78 ± 1.3 mPa·s | –
303.15 K, 31400 kPa | – | 43.9 ± 1.8 mPa·s and 43.8 ± 1.8 mPa·s
303.15 K, 40000 kPa | 51.64 ± 1.8 mPa·s | –
303.15 K, 40600 kPa | – | 53 ± 2.2 mPa·s and 52.9 ± 2.2 mPa·s
303.15 K, 50900 kPa | – | 64.7 ± 2.6 mPa·s and 64.6 ± 2.6 mPa·s
303.15 K, 60000 kPa | 74.96 ± 2.8 mPa·s | 78.3 ± 3.2 mPa·s and 78.1 ± 3.2 mPa·s
303.15 K, 71700 kPa | – | 94.7 ± 3.9 mPa·s and 94.5 ± 3.8 mPa·s
303.15 K, 80000 kPa | 107.09 ± 4.6 mPa·s | 107.8 ± 4.4 mPa·s and 107.5 ± 4.4 mPa·s
303.15 K, 100000 kPa | 146.47 ± 7.1 mPa·s | –
303.15 K, 120000 kPa | 210.53 ± 12 mPa·s | –
303.15 K, 140000 kPa | 305.4 ± 20 mPa·s | –
303.15 K, 160000 kPa | 422.48 ± 31 mPa·s | –
313.15 K, 10000 kPa | 16.8 ± 0.9 mPa·s | –
313.15 K, 10110 kPa | – | 18.2 ± 0.7 mPa·s and 18.3 ± 0.7 mPa·s
313.15 K, 15000 kPa | 18.9 ± 1 mPa·s | –
313.15 K, 20170 kPa | – | 22.4 ± 0.9 mPa·s and 22.6 ± 0.9 mPa·s
313.15 K, 25000 kPa | 23.8 ± 1.2 mPa·s | –
313.15 K, 29620 kPa | – | 26.6 ± 1.1 mPa·s and 26.9 ± 1.1 mPa·s
313.15 K, 40550 kPa | – | 32.5 ± 1.3 mPa·s and 32.8 ± 1.3 mPa·s
313.15 K, 49650 kPa | – | 38.5 ± 1.6 mPa·s and 38.8 ± 1.6 mPa·s
313.15 K, 50000 kPa | 39.2 ± 2 mPa·s and 36.3 ± 2 mPa·s | –
313.15 K, 60500 kPa | – | 47 ± 1.9 mPa·s and 47.4 ± 1.9 mPa·s
313.15 K, 70400 kPa | – | 55.9 ± 2.3 mPa·s and 56.4 ± 2.3 mPa·s
313.15 K, 75000 kPa | 61.2 ± 3.2 mPa·s and 59.6 ± 3.1 mPa·s | –
313.15 K, 80670 kPa | – | 66.4 ± 2.7 mPa·s and 66.9 ± 2.7 mPa·s
313.15 K, 100000 kPa | 92.3 ± 5.1 mPa·s and 91.3 ± 5 mPa·s | –
313.15 K, 125000 kPa | 136.4 ± 8.2 mPa·s and 134.8 ± 8.1 mPa·s | –
313.15 K, 150000 kPa | 199 ± 13 mPa·s and 194.1 ± 13 mPa·s | –
313.15 K, 175000 kPa | 275.3 ± 20 mPa·s | –
313.15 K, 200000 kPa | 386.2 ± 32 mPa·s | –
313.15 K, 225000 kPa | 537.7 ± 48 mPa·s | –
313.15 K, 250000 kPa | 744.7 ± 73 mPa·s | –
323.15 K, 10250 kPa | – | 12.8 ± 0.5 mPa·s and 12.7 ± 0.5 mPa·s
323.15 K, 20000 kPa | 15.77 ± 0.57 mPa·s | –
323.15 K, 20340 kPa | – | 15.5 ± 0.6 mPa·s
323.15 K, 30170 kPa | – | 18.4 ± 0.7 mPa·s
323.15 K, 40000 kPa | 22.36 ± 0.81 mPa·s | –
323.15 K, 40160 kPa | – | 21.8 ± 0.9 mPa·s
323.15 K, 50130 kPa | – | 25.8 ± 1 mPa·s
323.15 K, 60000 kPa | 31.17 ± 1.1 mPa·s | –
323.15 K, 60110 kPa | – | 30.8 ± 1.2 mPa·s and 30.8 ± 1.3 mPa·s
323.15 K, 70120 kPa | – | 36.2 ± 1.5 mPa·s
323.15 K, 80000 kPa | 42.71 ± 1.6 mPa·s | –
323.15 K, 80060 kPa | – | 43 ± 1.7 mPa·s
323.15 K, 100000 kPa | 57.75 ± 2.1 mPa·s | –
323.15 K, 120000 kPa | 77.38 ± 2.9 mPa·s | –
323.15 K, 140000 kPa | 102.35 ± 4.3 mPa·s | –
323.15 K, 160000 kPa | 135.1 ± 6.3 mPa·s | –
323.15 K, 180000 kPa | 175.94 ± 9.2 mPa·s | –
323.15 K, 200000 kPa | 228.18 ± 13 mPa·s | –
333.15 K, 9160 kPa | – | 9 ± 0.4 mPa·s
333.15 K, 19900 kPa | – | 10.9 ± 0.4 mPa·s
333.15 K, 30240 kPa | – | 13 ± 0.5 mPa·s and 13.1 ± 0.5 mPa·s
333.15 K, 40000 kPa | – | 15.3 ± 0.6 mPa·s
333.15 K, 49340 kPa | – | 17.7 ± 0.7 mPa·s
333.15 K, 60990 kPa | – | 21.4 ± 0.9 mPa·s
333.15 K, 70280 kPa | – | 25 ± 1 mPa·s
333.15 K, 80900 kPa | – | 28.5 ± 1.2 mPa·s and 28.6 ± 1.2 mPa·s
338.15 K, 50600 kPa | 15.56 ± 0.39 mPa·s | –
338.15 K, 102800 kPa | 32.94 ± 0.81 mPa·s | –
338.15 K, 150200 kPa | 60.9 ± 1.5 mPa·s | –
338.15 K, 198400 kPa | 108.9 ± 3.7 mPa·s | –
338.15 K, 249700 kPa | 194 ± 9.3 mPa·s | –
338.15 K, 272700 kPa | 243.8 ± 13 mPa·s | –
338.15 K, 299800 kPa | 327.6 ± 21 mPa·s | –
338.15 K, 349200 kPa | 538.5 ± 43 mPa·s and 531 ± 42 mPa·s | –
343.15 K, 10000 kPa | 7.3 ± 0.4 mPa·s | –
343.15 K, 15000 kPa | 8 ± 0.4 mPa·s | –
343.15 K, 25000 kPa | 9.4 ± 0.5 mPa·s | –
343.15 K, 50000 kPa | 13.6 ± 0.8 mPa·s | –
343.15 K, 75000 kPa | 19.2 ± 1.2 mPa·s and 18.7 ± 1.2 mPa·s | –
343.15 K, 100000 kPa | 26.5 ± 1.7 mPa·s and 27.2 ± 1.6 mPa·s | –
343.15 K, 125000 kPa | 36.2 ± 2.5 mPa·s and 38.1 ± 2.3 mPa·s | –
343.15 K, 150000 kPa | 49.1 ± 3.5 mPa·s and 52 ± 3.2 mPa·s | –
343.15 K, 175000 kPa | 69.9 ± 4.4 mPa·s | –
343.15 K, 200000 kPa | 92.8 ± 6.2 mPa·s | –
343.15 K, 225000 kPa | 122.1 ± 8.7 mPa·s | –
343.15 K, 250000 kPa | 159.6 ± 12 mPa·s | –
348.15 K, 20000 kPa | 7.45 ± 0.27 mPa·s | –
348.15 K, 40000 kPa | 10.15 ± 0.37 mPa·s | –
348.15 K, 60000 kPa | 13.51 ± 0.49 mPa·s | –
348.15 K, 80000 kPa | 17.79 ± 0.65 mPa·s | –
348.15 K, 100000 kPa | 23.08 ± 0.84 mPa·s | –
348.15 K, 120000 kPa | 29.61 ± 1.1 mPa·s | –
348.15 K, 140000 kPa | 37.63 ± 1.4 mPa·s | –
348.15 K, 160000 kPa | 48.09 ± 1.8 mPa·s | –
348.15 K, 180000 kPa | 60.38 ± 2.2 mPa·s | –
348.15 K, 198300 kPa | 70.83 ± 1.8 mPa·s | –
348.15 K, 200000 kPa | 74.91 ± 2.8 mPa·s | –
348.15 K, 200400 kPa | 72.63 ± 1.9 mPa·s | –
348.15 K, 300600 kPa | 202.9 ± 10 mPa·s | –
348.15 K, 349800 kPa | 327.6 ± 21 mPa·s | –
363.15 K, 10200 kPa | 4.36 ± 0.11 mPa·s | –
363.15 K, 21000 kPa | 5.15 ± 0.13 mPa·s | –
363.15 K, 30900 kPa | 5.97 ± 0.15 mPa·s | –
363.15 K, 40700 kPa | 6.84 ± 0.17 mPa·s | –
363.15 K, 50600 kPa | 7.82 ± 0.19 mPa·s | –
363.15 K, 60600 kPa | 8.94 ± 0.22 mPa·s | –
363.15 K, 70700 kPa | 10.18 ± 0.25 mPa·s | –
363.15 K, 80600 kPa | 11.49 ± 0.29 mPa·s | –
363.15 K, 91000 kPa | 13.06 ± 0.32 mPa·s | –
363.15 K, 100000 kPa | 14.59 ± 0.36 mPa·s and 14.2 ± 0.8 mPa·s | –
363.15 K, 120400 kPa | 18.36 ± 0.46 mPa·s | –
363.15 K, 125000 kPa | 19.9 ± 1.1 mPa·s | –
363.15 K, 150000 kPa | 26.8 ± 1.5 mPa·s | –
363.15 K, 150300 kPa | 25.56 ± 0.63 mPa·s | –
363.15 K, 175000 kPa | 35.1 ± 2 mPa·s | –
363.15 K, 200000 kPa | 45 ± 2.6 mPa·s | –
363.15 K, 200200 kPa | 42.82 ± 1.1 mPa·s | –
363.15 K, 225000 kPa | 56.7 ± 3.3 mPa·s | –
363.15 K, 225600 kPa | 55.03 ± 1.3 mPa·s | –
363.15 K, 246900 kPa | 66.23 ± 1.7 mPa·s | –
363.15 K, 250000 kPa | 70.4 ± 4.2 mPa·s | –
